Test results from US4130647A, “Methods for treating congestive heart failure and ischemic heart disease” (priority 1977, dated 1978).
Several values for one entry are separate records, joined by “and”; a condition that tells them apart may be missing. Equal values may be shown once. Read-outs that look alike come from different tables or passages of the source.

Legend:
[1] = test system: patients; conditions: cited from earlier work
[2] = test system: forearm blood flow, vascular resistance and venous tone of patients with heart failure; conditions: for forearm blood flow: control 1.29 ± 0.14; for forearm vascular resistance: control 88.9 ± 13.8
[3] = test system: patients who had severe ischemic cardiomyopathy and heart failure; assay: Hemodynamic effects of oral prazosin in congestive heart failure (Example 1); type: in vivo, human; conditions: for pressure.time per minute (index of myocardial oxygen demand): control 3293 ± 191
Description: The study comprised ten patients, six males and four females, mean age 51 years (range 46 to 62 years) who had severe ischemic cardiomyopathy and heart failure documented in each by cardiac catheterization and coronary arteriography. The duration of heart failure symptoms ranged from one to six years. All patients were receiving digoxin and diuretics, while seven were also taking long-acting nitrate preparations for the chronic unloading effects of these agents, Williams, et al., Am. J. Cardiol., 39, 84 (1977) and Amsterdam, et al., Circulation, 52 [Suppl. 2] 150 (1975).
Left ventriculography confirmed extensive abnormalities of segmental contraction in the appropriate area in each patient and the mean ejection fraction for this group of patients was 0.18 ± 0.03 (SEM). […] The remaining two patients were clinically functional class IV with resting dyspnea and were not able to undergo exercise evaluation.
Hemodynamics: All patients were studied in the post-absorptive state; and informed consent was obtained in each. All cardiac medications including digoxin, diuretics and long-acting nitrates were withheld for at least 24 hours prior to study.
Systemic arterial pressure was measured directly through an intra-arterial Teflon catheter placed into a brachial artery. Right atrial (RA), pulmonary artery (PA) and pulmonary artery wedge (PAW) pressures, and cardiac output (CO) by thermodilution were recorded with the Swan-Ganz catheter. Cardiac outputs were performed in triplicate (less than 10 percent variation) utilizing iced-water and computations were accomplished by a bed-side computer (Santa Barbara, Technology, Inc., Santa Barbara, Calif.).
Derived hemodynamic variables were calculated as follows: stroke work index (SWI) in gm-m/M^2 = SI × (AP-LVFP) × 0.0136 here SI = stroke index, AP = mean systemic arterial pressure and LVFP = left ventricular filling pressure either as the mean PAW or PA diastolic pressure, the particular method utilized for this variable remaining constant throughout the study for each patient; total systemic vascular resistance (TSVR) = 80 [(AP-RA)/CO] where 80 converts mm. Hg. to dynes sec. cm.^-5 and RA = mean RA pressure; pressure.time per minute (PTM) in mm. Hg. sec. per minute = AP × ET × HR where ET = left ventricular ejection time and HR = heart rate.

[4] = test system: enzyme phosphodiesterase in vascular smooth muscle; conditions: cited from earlier work
[5] = test system: patients; set-up: species or system human; conditions: in vivo
Description: A finding of major importance which emerged from this investigation concerns the relative effects of prazosin on both venous and arteriolar smooth muscle. Prazosin is used clinically as an antihypertensive agent and the arterial dilating actions have been confirmed previously in experimental studies [Cohen, et al., J. Clin. Pharmacol., 10, 408 (1970)]. The important finding delineated herein that prazosin also effects substantial venodilation was of considerable physiologic significance since this unique action on systemic veins allows salutory extension of oral prazosin to the ambulatory therapy of chronic congestive heart failure. In this regard, in patients with normal left ventricular filling pressures, the prazosin-induced venous pooling and decline in cardiac return may lower ventricular preload to such a degree that the point of operation of the ventricle on the Frank-Starling relation is shifted substantially downward and to the left on its ascending limb with resultant decline in cardiac output despite lowered impedance. Furthermore, in the case of prazosin, the attenuation of reflex tachycardia by the agent in this circumstance of lowered stroke volume because of low preload, inhibits the principal regulatory mechanism which would otherwise compensate for the lowered stroke volume. […]

[6] = test system: contractile state of the heart; conditions: experimental studies; cited from earlier work
[7] = one hour post prazosin vs. control
[8] = 1 hour post prazosin, individual patients
[9] = 60 minutes post prazosin vs. control
[10] = 3 hours post prazosin, group mean
[11] = 3 hours post prazosin, individual patients
[12] = 6 hours post prazosin, group mean
[13] = 6 hours post prazosin, individual patients

COc1cc2nc(N3CCN(C(=O)c4ccco4)CC3)nc(N)c2cc1OC [prazosin]
tolerability in long-term administration ([1]; hypertensive patients): relatively well tolerated | excessive hypotension ([1]; in vivo): reported to occasionally occur | serologic side effects resembling hydralazine-induced lupus erythematosus ([1]; in vivo): no reports of serologic side effects | febrile polyarthritis ([1]; patient receiving prazosin for hypertension): reported in a single patient | forearm vascular resistance, patients responding ([2]; 30 minutes post prazosin): lowered by prazosin in all patients | ratio of percent reduction of forearm vascular resistance to percent decline in forearm venous tone ([2]; 30 minutes post prazosin): 0.49 | change in forearm venous tone ([2]; 30 minutes post prazosin vs. control): -69% | forearm blood flow ([2]; 30 minutes post prazosin): 1.71 ± 0.25 ml./100 gm./minute | venous tone in the forearm ([2]; 30 minutes post prazosin, control 58.9 ± 13.8): 18.5 ± 3.9 ml./mm. Hg. | forearm vascular resistance ([2]; 30 minutes post prazosin): 58.4 ± 6.1 mm. Hg./ml./100 gm./min. | ratio of percent reduction of forearm vascular resistance to percent decline in forearm venous tone ([2]; 1 hour post prazosin): 0.67 | forearm blood flow ([2]; 60 minutes post prazosin): 1.95 ± 0.33 ml./100 gm./minute | persistence of increase in forearm blood flow ([2]; 6 hours): remained increased for the entire 6 hours | change in forearm vascular resistance [2, 7]: -47% | forearm vascular resistance ([2]; one hour post prazosin): 47.9 ± 5.8 mm. Hg./ml./100 gm./min. | persistence of decline in forearm vascular resistance ([2]; six hours): persisted for the six hour study period | persistence of lowering of forearm venous tone ([2]; six hours): remained lowered at this level for the entire six hour observation period | cardiac index, patients responding ([3]; 30 minutes post prazosin): increased in each patient | left ventricular filling pressure, patients responding ([3]; 30 minutes post prazosin): lowered in all 10 patients | Cardiac Index ([3]; 30 minutes post prazosin, group mean, control 2.07 ± 0.12): 2.62 ± 0.11 L/min./M^2 | total systemic vascular resistance ([3]; 30 minutes post prazosin, group mean, control 2074 ± 183): 1448 ± 139 dynes sec. cm.^-5 | stroke work index, direction of change ([3]; 30 minutes post prazosin, p<0.01): increased | Mean Systemic Arterial Pressure ([3]; 30 minutes post prazosin, control 95.3 ± 5.3): 86.1 ± 5.8 mm. Hg. | pressure.time per minute (index of myocardial oxygen demand) ([3]; 30 minutes post prazosin): 2992 ± 208 mm. Hg. sec. per minute | CI (cardiac index), mean ([3]; 1 hour (60 minutes) post prazosin, group mean, control 2.07): 2.94 ± 0.10 L/min./M^2 and 2.9 L/min./M^2 | SWI (stroke work index), mean ([3]; 1 hour (60 minutes) post prazosin, group mean, control 23.3): 31.4 ± 5.1 gm.-m/M^2 and 31.4 gm.-m/M^2 | LVFP (left ventricular filling pressure), mean ([3]; 1 hour (60 minutes) post prazosin, group mean, control 30.2): 17.7 ± 1.4 mm. Hg. and 17.7 mm. Hg. | HR (heart rate), mean ([3]; 1 hour post prazosin, group mean, control 84): 84 beats per minute | AP (mean systemic arterial pressure), mean ([3]; 1 hour post prazosin, group mean, control 95.3): 77.8 mm. Hg. | TSVR (total systemic vascular resistance), mean ([3]; 1 hour post prazosin, group mean, control 2074): 1156 ± 83 dynes sec. cm.^-5 and 1156 dynes sec. cm.^-5 | AP (mean systemic arterial pressure) [3, 8]: 86 mm. Hg. and 62 mm. Hg. and 92 mm. Hg. and 69 mm. Hg. and 91 mm. Hg. and 77 mm. Hg. and 67 mm. Hg. and 64 mm. Hg. and 60 mm. Hg. and 110 mm. Hg. | CI (cardiac index) [3, 8]: 2.9 L/min./M^2 and 2.8 L/min./M^2 and 3.2 L/min./M^2 and 2.6 L/min./M^2 and 3.1 L/min./M^2 and 2.5 L/min./M^2 and 3.5 L/min./M^2 | LVFP (left ventricular filling pressure) [3, 8]: 16 mm. Hg. and 19 mm. Hg. and 25 mm. Hg. and 11 mm. Hg. and 12 mm. Hg. and 18 mm. Hg. and 24 mm. Hg. and 21 mm. Hg. and 20 mm. Hg. and 13 mm. Hg. | SWI (stroke work index) [3, 8]: 41 gm.-m/M^2 and 23 gm.-m/M^2 and 34 gm.-m/M^2 and 24 gm.-m/M^2 and 44 gm.-m/M^2 and 29 gm.-m/M^2 and 17 gm.-m/M^2 and 15 gm.-m/M^2 and 20 gm.-m/M^2 and 68 gm.-m/M^2 | TSVR (total systemic vascular resistance) [3, 8]: 1445 dynes sec. cm.^-5 and 1038 dynes sec. cm.^-5 and 1067 dynes sec. cm.^-5 and 920 dynes sec. cm.^-5 and 1549 dynes sec. cm.^-5 and 1011 dynes sec. cm.^-5 and 1477 dynes sec. cm.^-5 and 908 dynes sec. cm.^-5 and 836 dynes sec. cm.^-5 and 1304 dynes sec. cm.^-5 | HR (heart rate) ([3]; 1 hour post prazosin, oral 2 to 5 mg (one patient 7 mg), individual patients 1-10): 66 beats per minute and 72 beats per minute and 90 beats per minute and 105 beats per minute and 62 beats per minute and 87 beats per minute and 86 beats per minute and 102 beats per minute | change in cardiac index (maximal increase) [3, 9]: +42% | change in left ventricular filling pressure [3, 9]: -41% | change in stroke work index (peak) [3, 9]: +35% | AP (mean systemic arterial pressure), mean [3, 10]: 78.6 mm. Hg. | CI (cardiac index), mean [3, 10]: 2.7 L/min./M^2 | HR (heart rate), mean [3, 10]: 81 beats per minute | LVFP (left ventricular filling pressure), mean [3, 10]: 17.9 mm. Hg. | SWI (stroke work index), mean [3, 10]: 28.7 gm.-m/M^2 | TSVR (total systemic vascular resistance), mean [3, 10]: 1303 dynes sec. cm.^-5 | AP (mean systemic arterial pressure) [3, 11]: 79 mm. Hg. and 67 mm. Hg. and 90 mm. Hg. and 72 mm. Hg. and 80 mm. Hg. and 77 mm. Hg. and 68 mm. Hg. and 69 mm. Hg. and 104 mm. Hg. | CI (cardiac index) [3, 11]: 3.1 L/min./M^2 and 2.4 L/min./M^2 and 2.0 L/min./M^2 and 2.9 L/min./M^2 and 2.3 L/min./M^2 and 2.8 L/min./M^2 and 3.3 L/min./M^2 and 2.5 L/min./M^2 | HR (heart rate) [3, 11]: 66 beats per minute and 70 beats per minute and 85 beats per minute and 100 beats per minute and 61 beats per minute and 72 beats per minute and 112 beats per minute and 80 beats per minute and 99 beats per minute | LVFP (left ventricular filling pressure) [3, 11]: 21 mm. Hg. and 23 mm. Hg. and 14 mm. Hg. and 11 mm. Hg. and 20 mm. Hg. and 22 mm. Hg. and 25 mm. Hg. and 18 mm. Hg. and 16 mm. Hg. | SWI (stroke work index) [3, 11]: 45 gm.-m/M^2 and 25 gm.-m/M^2 and 32 gm.-m/M^2 and 22 gm.-m/M^2 and 36 gm.-m/M^2 and 26 gm.-m/M^2 and 16 gm.-m/M^2 and 17 gm.-m/M^2 and 24 gm.-m/M^2 and 44 gm.-m/M^2 | TSVR (total systemic vascular resistance) [3, 11]: 1222 dynes sec. cm.^-5 and 1307 dynes sec. cm.^-5 and 1125 dynes sec. cm.^-5 and 1069 dynes sec. cm.^-5 and 1484 dynes sec. cm.^-5 and 1294 dynes sec. cm.^-5 and 1850 dynes sec. cm.^-5 and 1135 dynes sec. cm.^-5 and 840 dynes sec. cm.^-5 and 1708 dynes sec. cm.^-5 | persistence of reduction of pressure.time per minute ([3]; 6 hours): remained diminished for 6 hours | persistence of reduction of total systemic vascular resistance ([3]; 6 hours): significant (p<0.001) reduction in TSVR persisted for the entire 6 hour observation | AP (mean systemic arterial pressure), mean [3, 12]: 86.0 mm. Hg. | CI (cardiac index), mean [3, 12]: 2.4 L/min./M^2 | HR (heart rate), mean [3, 12]: 75 beats per minute | LVFP (left ventricular filling pressure), mean [3, 12]: 19.7 mm. Hg. | SWI (stroke work index), mean [3, 12]: 29.9 gm.-m/M^2 | TSVR (total systemic vascular resistance), mean [3, 12]: 1639 dynes sec. cm.^-5 | AP (mean systemic arterial pressure) [3, 13]: 75 mm. Hg. and 80 mm. Hg. and 100 mm. Hg. and 102 mm. Hg. and 85 mm. Hg. and 74 mm. Hg. | CI (cardiac index) [3, 13]: 3.1 L/min./M^2 and 2.4 L/min./M^2 and 2.6 L/min./M^2 and 2.2 L/min./M^2 and 2.1 L/min./M^2 | HR (heart rate) [3, 13]: 70 beats per minute and 72 beats per minute and 90 beats per minute and 56 beats per minute and 78 beats per minute and 86 beats per minute | LVFP (left ventricular filling pressure) [3, 13]: 13 mm. Hg. and 20 mm. Hg. and 23 mm. Hg. and 15 mm. Hg. and 18 mm. Hg. and 29 mm. Hg. | SWI (stroke work index) [3, 13]: 38 gm.-m/M^2 and 27 gm.-m/M^2 and 30 gm.-m/M^2 and 45 gm.-m/M^2 and 25 gm.-m/M^2 and 15 gm.-m/M^2 | TSVR (total systemic vascular resistance; head TSVB) [3, 13]: 1158 dynes sec. cm.^-5 and 1550 dynes sec. cm.^-5 and 1455 dynes sec. cm.^-5 and 2066 dynes sec. cm.^-5 and 1638 dynes sec. cm.^-5 and 1973 dynes sec. cm.^-5 | persistence of reduction of left ventricular filling pressure ([3]; entire study period): remained significantly (p<0.001) reduced throughout the entire study period | total systemic vascular resistance, patients responding ([3]; following prazosin): reduced in each patient | change in heart rate ([3]; following prazosin, control 84 ± 5.1 beats per minute, p>0.05): not statistically different | change in pressure.time per minute [3, 7]: -15% | change in total systemic vascular resistance [3, 7]: -44 | pressure.time per minute (index of myocardial oxygen demand) ([3]; one hour post prazosin): 2793 ± 188 mm. Hg. sec. per minute | response in systemic blood pressure or left ventricular filling pressure ([3]; one patient, 2 hours following first dose): no alteration in systemic blood pressure or left ventricular filling pressure | persistence of increase in cardiac index ([3]; six hours vs. control): remaining significantly (p<0.01) elevated at six hours | persistence of lowering of mean systemic arterial pressure ([3]; throughout the observation period): remained significantly (p<0.001 or p<0.01) lowered throughout the observation period | change in mean systemic arterial pressure ([3]; two hours post prazosin vs. control): -20% | mean systemic arterial pressure, maximal hypotensive effect ([3]; two hours post prazosin, control 95.3 ± 5.3): 76.2 ± 3.8 mm. Hg. | cyclic GMP ([4]; myocardium): increased levels of cyclic GMP | cyclic AMP ([4]; vascular smooth muscle): accumulation of cyclic AMP | inhibition of phosphodiesterase ([4]; vascular smooth muscle): inhibition of the enzyme phosphodiesterase | syncope or other untoward effects [5]: no syncope or other untoward effects occurred | effects on the contractile state of the heart [6]: neither direct nor sympathetically mediated indirect effects
